Read-outs that look alike come from different tables or passages of the source. No end group written: not given here.
T1: human TAS1R2-WT/TAS1R3-P780A (Homo sapiens, UniProt Q7RTX0+Q8TE23, P780A)
T1 construct: expressed in transfected cells; host or cells: HEK293T stably expressing Gα16gust44
T1 sequence (Q8TE23 20-839): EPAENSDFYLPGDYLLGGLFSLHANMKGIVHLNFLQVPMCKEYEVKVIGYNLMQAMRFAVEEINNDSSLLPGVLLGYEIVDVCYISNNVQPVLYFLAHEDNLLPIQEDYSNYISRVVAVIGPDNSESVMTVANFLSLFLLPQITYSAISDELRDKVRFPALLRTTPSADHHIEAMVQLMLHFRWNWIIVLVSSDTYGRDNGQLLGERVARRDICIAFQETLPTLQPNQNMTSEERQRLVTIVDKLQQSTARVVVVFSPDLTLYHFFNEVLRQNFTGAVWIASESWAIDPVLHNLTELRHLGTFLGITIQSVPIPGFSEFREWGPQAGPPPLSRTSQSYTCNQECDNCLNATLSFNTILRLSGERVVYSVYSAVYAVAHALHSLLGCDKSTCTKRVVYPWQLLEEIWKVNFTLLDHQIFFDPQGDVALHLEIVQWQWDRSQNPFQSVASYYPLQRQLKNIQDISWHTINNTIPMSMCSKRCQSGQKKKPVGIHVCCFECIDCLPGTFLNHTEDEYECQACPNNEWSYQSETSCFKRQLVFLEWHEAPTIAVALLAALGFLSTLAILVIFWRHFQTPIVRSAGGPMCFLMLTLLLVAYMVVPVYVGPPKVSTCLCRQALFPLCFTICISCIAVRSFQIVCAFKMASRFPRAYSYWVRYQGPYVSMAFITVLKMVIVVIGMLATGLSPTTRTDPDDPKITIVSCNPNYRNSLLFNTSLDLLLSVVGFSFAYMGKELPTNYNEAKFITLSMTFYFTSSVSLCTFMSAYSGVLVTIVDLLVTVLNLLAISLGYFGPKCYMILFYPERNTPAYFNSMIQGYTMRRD
T1 sequence (Q7RTX0 21-852 P780A): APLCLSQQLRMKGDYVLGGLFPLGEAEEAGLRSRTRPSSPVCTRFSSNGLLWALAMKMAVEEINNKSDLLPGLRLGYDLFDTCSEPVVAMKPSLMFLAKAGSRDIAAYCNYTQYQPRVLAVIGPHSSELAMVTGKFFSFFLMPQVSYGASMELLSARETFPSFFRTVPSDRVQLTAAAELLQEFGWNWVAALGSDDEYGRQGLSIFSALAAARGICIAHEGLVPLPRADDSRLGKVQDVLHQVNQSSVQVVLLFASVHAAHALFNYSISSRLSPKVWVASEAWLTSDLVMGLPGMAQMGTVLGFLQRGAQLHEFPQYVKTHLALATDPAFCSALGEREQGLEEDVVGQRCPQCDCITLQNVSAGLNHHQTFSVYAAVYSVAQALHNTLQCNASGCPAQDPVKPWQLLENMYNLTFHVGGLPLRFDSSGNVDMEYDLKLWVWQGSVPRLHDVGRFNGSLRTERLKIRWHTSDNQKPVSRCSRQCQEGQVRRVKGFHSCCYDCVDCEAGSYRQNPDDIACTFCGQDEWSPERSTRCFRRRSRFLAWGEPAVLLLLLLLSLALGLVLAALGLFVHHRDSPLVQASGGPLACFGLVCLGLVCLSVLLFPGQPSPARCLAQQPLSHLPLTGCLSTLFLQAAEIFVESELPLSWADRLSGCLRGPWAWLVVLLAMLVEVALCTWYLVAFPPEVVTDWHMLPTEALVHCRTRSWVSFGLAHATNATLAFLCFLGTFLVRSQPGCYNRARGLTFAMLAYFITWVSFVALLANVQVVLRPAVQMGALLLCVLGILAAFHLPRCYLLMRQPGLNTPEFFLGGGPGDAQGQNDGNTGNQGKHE


Biological target: T1, human TAS1R2-WT/TAS1R3-P780A
Test: Calcium mobilisation assay, TAS1R2-WT with TAS1R3 variant P780A
Type: cell-based
Details: for Max ΔF/F0: maximal signal amplitude
Description: The coding sequences for TAS1R2 and TAS1R3 were commercially synthesised, and the human codon was optimised for expression in human cells. The coding sequences of human TAS1R2 and TAS1R3 were subcloned and inserted into the mammalian expression vectors pcDNA6/myc-HisA and pcDNA4/myc-HisA (Invitrogen; Thermo Fisher Scientific; Illkirch, France) between the EcoRI and NotI restriction sites, generating the plasmids pcDNA6-TAS1R2 and pcDNA4-TAS1R3, respectively. To increase protein expression in mammalian cells, an upstream start codon was used, which was a sequence called MAX, corresponding to the QBI SP163 element also described in pcDNA4-HisMax (Invitrogen; Thermo Fisher Scientific; Illkirch, France). To measure the expression level of the receptor by immunohistochemistry, we used the FLAG sequence ([…]) in the C-terminal position, which encodes the FLAG tag epitope. SNP variants of TAS1R2 and TAS1R3 were constructed based on […], respectively, using site-directed mutagenesis (Genewiz; Leipzig, Germany).
The HEK293T cells were kindly provided by Jay P. Slack (Givaudan Flavors Corporation; Cincinnati, OH, USA). HEK293T cells stably transfected with Gα16gust44 [43, 67] were seeded in poly-D-lysine-coated clear-bottom black 96-well plates (0.35 × 10^5 cells/well) in high-glucose DMEM supplemented with 2 mM GlutaMAX, 10% dialysed foetal bovine serum with penicillin/streptomycin and G418 (400 μg/mL) at 37 °C and 6.3% CO2 in a humidified atmosphere as previously reported. […] As a negative control, HEK293T cells were mock-transfected with the empty expression vector. After a further 24 h of incubation, the HEK293T cells were washed with C1 buffer (130 mM NaCl, 5 mM KCl, 10 mM HEPES pH 7.4 and 2 mM CaCl2). The 96-well plates containing the cells were then stimulated with sweet-tasting compounds. […] Different concentration ranges were tested depending on the sweet compound injected. The Ca^2+ changes were expressed as fractional changes in fluorescent light intensity: ΔF/F = (F − F0)/F0, where F was the fluorescent light intensity at each point, and F0 was the value of emitted fluorescent light prior to stimulus application. To calculate dose–response relationships, the changes in fluorescence upon stimulus application were averaged, mock-subtracted and baseline-corrected. The dose–response data obtained were adjusted using a 4-parameter logistic equation. The half-maximal effective concentrations (EC50 values) and maximal signal amplitudes were calculated using SigmaPlot software (version 15.0) (Systat Software; San Jose, CA, USA).
For in vitro calcium mobilisation assay performed on hTAS1R2-SNPs, hTAS1R3-SNPs and mTAS1R3-I60T, 6 to 7 concentrations were tested for each sweet compound, plus buffer alone. All concentration–receptor combinations were measured in duplicate, and each experiment was repeated at least 4 times (8 wells/concentration). Results were expressed for each concentration as ΔF/F mean ± SEM and represented as dose–response curves.

| Molecule | R1 = Variant EC50/WT EC50 | Max ΔF/F0 | EC50 (read-out: EC50) | EC50 (brazzein) |
| --- | --- | --- | --- | --- |
| CC1=CC(=O)NS(=O)(=O)O1 [Acesulfame K, acesulfame K] | 0.7 | 0.30 ± 0.01 | 421 ± 31 µM | – |
| O=S(=O)(O)NC1CCCCC1 [Cyclamate, cyclamate] | – | – | 1170 ± 62 µM | – |
| C[C@H](CC[C@@H](O[C@@H]1O[C@H](CO[C@@H]2O[C@H](CO)[C@@H](O)[C@H](O)[C@H]2O)[C@@H](O)[C@H](O)[C@H]1O[C@@H]1O[C@H](CO)[C@@H](O)[C@H](O)[C@H]1O)C(C)(C)O)[C@H]1CC[C@@]2(C)[C@@H]3CC=C4[C@@H](CC[C@H](O[C@@H]5O[C@H](CO[C@@H]6O[C@H](CO)[C@@H](O)[C@H](O)[C@H]6O)[C@@H](O)[C@H](O)[C@H]5O)C4(C)C)[C@]3(C)[C@H](O)C[C@]12C [Mogroside V, mogroside V] | 0.7 | 1.13 ± 0.04 | 22.5 ± 2.2 µM | – |
| COc1ccc(CCC(=O)c2c(O)cc(O[C@@H]3O[C@H](CO)[C@@H](O)[C@H](O)[C@H]3O[C@@H]3O[C@@H](C)[C@H](O)[C@@H](O)[C@H]3O)cc2O)cc1O [NHDC, neohesperidin dihydrochalcone] | 0.9 | 1.50 ± 0.01 | 46.4 ± 12.9 µM | – |
| COC(=O)[C@H](Cc1ccccc1)NC(=O)[C@H](CC(=O)O)NCCC(C)(C)C [Neotame] | 0.8 | 0.63 ± 0.02 | 1.03 ± 0.08 µM | – |

Continued, values first:

| R1 = Variant EC50/WT EC50 | Max ΔF/F0 | EC50 (read-out: EC50) | EC50 (brazzein) | Molecule |
| --- | --- | --- | --- | --- |
| 0.9 | 1.44 ± 0.20 | 12.7 ± 5 µM | – | C=C(C)[C@@H]1CC=C(/C=N/O)CC1 [Perillartine, perillartine] |
| 0.6 | 1.21 ± 0.05 | 23 ± 2.6 µM | – | C=C1C[C@@]23CC[C@H]4[C@@](C)(CCC[C@@]4(C)C(=O)O[C@@H]4O[C@H](CO)[C@@H](O)[C@H](O[C@@H]5O[C@H](CO)[C@@H](O)[C@H](O)[C@H]5O)[C@H]4O[C@@H]4O[C@H](CO)[C@@H](O)[C@H](O)[C@H]4O)[C@@H]2CC[C@]1(O[C@@H]1O[C@H](CO)[C@@H](O)[C@H](O[C@@H]2O[C@H](CO)[C@@H](O)[C@H](O)[C@H]2O)[C@H]1O[C@@H]1O[C@H](CO)[C@@H](O)[C@H](O)[C@H]1O)C3 [Rebaudioside M, rebaudioside M] |
| 1.4 | 0.76 ± 0.03 | 149 ± 12 µM | – | OC[C@H]1O[C@H](O[C@]2(CCl)O[C@H](CCl)[C@@H](O)[C@@H]2O)[C@H](O)[C@@H](O)[C@H]1Cl [Sucralose] |
| 0.7 | 1.06 ± 0.06 | – | 80.7 ± 14.8 µg/mL | brazzein (QDKCKKVYENYPVSKCQLANQCNYDCKLDKHARSGECFYDEKRNLQCICDYCEY; ends and bridges not checked; cysteine pairing not given here; UniProt P56552 1-54, looked up) [sweet-tasting protein obtained by recombinant production using the yeast Pichia pastoris] |
| 0.8 | 0.86 ± 0.06 | – | – | thaumatin |
| – | – | 7.8 ± 1.3 µM | – | thaumatin (protein, Eight disulfides, sweet-tasting plant protein, E957) ATFEIVNRCSYTVWAAASKGDAALDAGGRQLNSGESWTINVEPGTKGGKIWARTDCYFDDSGSGICKTGDCGGLLRCKRFGRPPTTLAEFSLNQYGKDYIDISNIKGFNVPMDFSPTTRGCRGVRCAADIVGQCPAKLKAPGGGCNDACTVFQTSEYCCTTGKCGPTEYSRFFKRLCPDAFSYVLDKPTTVTCPGSSNYRVTFCPTA |
